The target in one data set is hNav1.7 (Homo sapiens, UniProt Q15858). The data set is described as follows: Electrophysiological assay, whole cell voltage clamp. In kind it is cell-based. On the set-up: expressed in transfected cells; host or cells: HEK293. As for the experimental part:
HEK293 Cells expressing hNav1.7 were cultured in DMEM growth media (Gibco) with 0.5 mg/mL G418, +/−1% PSG, and 10% heat-inactivated fetal bovine serum at 37° C. and 5% CO2. For electrophysiological recordings, cells were plated on 10 mm dishes.
Whole cell recordings were examined by established methods of whole cell voltage clamp (Bean et al., op. cit.) using an Axopatch 200B amplifier and Clampex software (Axon Instruments, Union City, Calif.). All experiments were performed at ambient temperature. Electrodes were fire-polished to resistances of 2-4 Mohms Voltage errors and capacitance artifacts were minimized by series resistance compensation and capacitance compensation, respectively. Data were acquired at 40 kHz and filtered at 5 kHz. The external (bath) solution consisted of: NaCl (140 mM), KCl (5 mM), CaCl2 (2 mM), MgCl2 (1 mM), HEPES (10 mM) at pH 7.4. The internal (pipette) solution consisted of (in mM): NaCl (5), CaCl2 (0.1), MgCl2 (2), CsCl (10), CsF (120), HEPES (10), EGTA (10), at pH 7.2.
To estimate the steady-state affinity of compounds for the resting and inactivated state of the channel (Kr and Ki, respectively), 12.5 ms test pulses to depolarizing voltages from −60 to +90 m V from a holding potential of −120 m V was used to construct current-voltage relationships (1-V curves). A voltage near the peak of the IV-curve (−30 to 0 m V) was used as the test pulse throughout the remainder of the experiment. Steady-state inactivation (availability) curves were then constructed by measuring the current activated during a 8.75 ms test pulse following 1 second conditioning pulses to potentials ranging from −120 to −10 mV.
The steady-state voltage-dependence of binding of a compound to a voltage-gated sodium channel was determined by measuring the blockage of the ionic current at two holding potentials. Binding to rested-state channels was determined by using a holding potential of −120 mV, so that maximal availability was achieved. Binding to inactivated-state channels was evaluated at a holding potential such that only about 10% of the channels were available to open. The membrane potential was held at this voltage for at least 10 seconds so that drug binding could equilibrate.
The apparent dissociation constant at each voltage was calculated with the equation:
[formula] where Kd is the dissociation constant (either Kr or Ki), and [Drug] is the concentration of the test compound.

Another data set deals with dental pain. Nature of the data set: Clinical trial for dental pain after extraction of impacted third molar teeth. In kind it is in vivo. To be noted: single 500 mg dose, human subjects. As for the experimental part:
The purpose of this clinical trial was to compare the safety and efficacy (onset, duration of relief, and overall efficacy) of a single 500 mg dose of the (S)-enantiomer of the invention versus placebo dose for relief of pain following extraction of impacted third molar teeth.
Sixty-one subjects were enrolled in the study. The mean age for the subjects was 20.4 years, and all subjects were male. The majority of subjects were Caucasians (95.1%).
The severity and relief of the pain was measured using an 11-point Pain Intensity Numerical Rating Scale (graded from 0=no pain at all to 10=worst pain imaginable) (PINRS) and a 5-point Categorical Pain Relief Scale (REL). Subjects completed the PINRS after surgery, but before the administration of (S)-enantiomer of the invention. Efficacy variables were derived from the REL and PINRS scores and included total pain relief (TOTPAR), pain intensity difference (PID), and summed pain intensity difference (SPID) and evaluated at time points of 4, 6, 8, and 12 hours after administration of the (S)-enantiomer of the invention.

Data set [1] can be described thus: Solubility in pharmaceutically acceptable excipients. In kind it is physicochemical. The source says:
Thus, the (S)-enantiomer can be formulated in a fewer number of dosage units than the racemate. This property facilitates dosing patients at a higher level if needed to achieve efficacy.

We go through one molecule from patent US9480677B2, “Enantiomers of spiro-oxindole compounds and their uses as therapeutic agents” (Xenon Pharmaceuticals Inc., priority 2009, dated 2016).

In general, solubility refers to the dissolved amount per volume that the medium holds.

≈ marks a conversion by molar mass, not a printed value.

hNav1.7, sequence (Q15858 whole entry): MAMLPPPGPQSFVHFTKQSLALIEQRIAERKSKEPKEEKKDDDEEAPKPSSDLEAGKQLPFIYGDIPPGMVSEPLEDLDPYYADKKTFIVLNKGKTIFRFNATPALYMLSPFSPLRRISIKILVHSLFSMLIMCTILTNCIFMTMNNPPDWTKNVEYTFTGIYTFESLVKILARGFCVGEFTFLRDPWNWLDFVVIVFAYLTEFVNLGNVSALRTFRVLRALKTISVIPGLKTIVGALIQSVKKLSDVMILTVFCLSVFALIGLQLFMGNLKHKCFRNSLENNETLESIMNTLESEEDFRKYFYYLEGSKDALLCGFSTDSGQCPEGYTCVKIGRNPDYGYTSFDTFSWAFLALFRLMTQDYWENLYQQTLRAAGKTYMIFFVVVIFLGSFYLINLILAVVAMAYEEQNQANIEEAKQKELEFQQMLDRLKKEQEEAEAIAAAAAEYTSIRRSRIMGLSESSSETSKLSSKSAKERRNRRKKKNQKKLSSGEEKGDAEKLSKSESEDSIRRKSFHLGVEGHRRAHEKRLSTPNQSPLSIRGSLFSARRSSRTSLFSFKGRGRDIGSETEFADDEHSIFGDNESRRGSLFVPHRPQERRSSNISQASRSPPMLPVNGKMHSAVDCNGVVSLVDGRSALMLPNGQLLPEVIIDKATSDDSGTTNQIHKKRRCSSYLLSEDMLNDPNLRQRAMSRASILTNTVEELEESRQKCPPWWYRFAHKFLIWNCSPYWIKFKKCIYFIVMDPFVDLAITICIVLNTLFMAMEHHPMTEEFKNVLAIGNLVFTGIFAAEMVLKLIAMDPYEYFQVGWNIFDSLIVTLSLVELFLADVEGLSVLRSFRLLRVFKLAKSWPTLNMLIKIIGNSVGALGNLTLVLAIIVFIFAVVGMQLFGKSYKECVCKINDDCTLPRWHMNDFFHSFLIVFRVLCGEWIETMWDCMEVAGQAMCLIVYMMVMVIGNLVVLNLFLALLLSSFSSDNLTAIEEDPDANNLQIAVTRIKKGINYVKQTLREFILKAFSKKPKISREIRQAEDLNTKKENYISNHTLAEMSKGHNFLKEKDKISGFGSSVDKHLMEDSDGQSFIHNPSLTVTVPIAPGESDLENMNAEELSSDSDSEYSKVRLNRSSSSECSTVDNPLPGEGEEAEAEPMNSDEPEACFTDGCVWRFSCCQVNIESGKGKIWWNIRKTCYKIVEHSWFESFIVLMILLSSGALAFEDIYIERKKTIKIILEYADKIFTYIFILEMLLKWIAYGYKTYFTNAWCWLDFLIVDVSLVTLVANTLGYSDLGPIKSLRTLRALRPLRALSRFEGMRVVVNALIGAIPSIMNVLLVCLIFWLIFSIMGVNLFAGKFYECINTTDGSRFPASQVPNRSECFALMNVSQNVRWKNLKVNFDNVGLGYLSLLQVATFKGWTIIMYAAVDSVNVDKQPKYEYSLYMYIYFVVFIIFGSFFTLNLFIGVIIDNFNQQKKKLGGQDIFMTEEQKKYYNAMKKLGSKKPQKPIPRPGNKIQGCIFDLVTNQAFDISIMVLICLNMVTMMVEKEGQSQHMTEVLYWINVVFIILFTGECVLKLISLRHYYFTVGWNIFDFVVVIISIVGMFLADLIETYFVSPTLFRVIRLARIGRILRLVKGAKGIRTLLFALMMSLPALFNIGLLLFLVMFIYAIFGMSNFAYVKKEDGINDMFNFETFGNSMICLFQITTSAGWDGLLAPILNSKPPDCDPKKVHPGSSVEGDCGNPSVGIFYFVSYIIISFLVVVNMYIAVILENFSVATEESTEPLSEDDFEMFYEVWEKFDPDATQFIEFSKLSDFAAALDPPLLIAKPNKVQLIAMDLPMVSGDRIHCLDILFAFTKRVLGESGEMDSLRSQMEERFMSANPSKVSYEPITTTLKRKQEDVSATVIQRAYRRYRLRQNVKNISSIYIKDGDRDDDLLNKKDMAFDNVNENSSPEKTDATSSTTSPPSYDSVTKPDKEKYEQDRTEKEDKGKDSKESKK

As to `O=C1N(Cc2ccc(C(F)(F)F)o2)c2ccccc2[C@]12COc1cc3c(cc12)OCO3` [(I-S), (S)-1′-{[5-(trifluoromethyl)furan-2-yl]methyl}spiro[furo[2,3-f][1,3]benzodioxole-7,3′-indol]-2′(1′H)-one], the “potency in binding to the inactivated-state of hNav1.7 relative to the (R)-enantiomer” value on hNav1.7 ((S)- versus (R)-enantiomer) is “about 5 times”. Further, the Ki on hNav1.7 (affinity for the inactivated state of hNav1.7) came to 161 nM. Moreover, the Kd at hNav1.7 (affinity for the rested/closed state of hNav1.7, holding potential −120 mV, read-out: Kr) was above 10000 nM. Also, the onset of action entry in the data set on dental pain is “slow onset of action”. For the same molecule, the “pain relief compared to placebo” value in the data set with dental pain is “higher”. Further, the “primary and all secondary endpoints (TOTPAR, PID, SPID) versus placebo” value with dental pain is listed as “consistent analgesic trend”. Further, in the data set with dental pain, the “statistical significance from the placebo” value was “not achieved”. The solubility in data set [1] (Ethanol, organic solvent or mixture) is 36.4 mg/mL (≈ 84.8 mM); in data set [1] (PEG 400, organic solvent or mixture) it was above 55 mg/mL; in data set [1] (Propylene glycol, organic solvent or mixture), 9.8 mg/mL (≈ 22.8 mM); in data set [1] (oil or lipid, Capryol ® 90) it was 96 mg/mL (≈ 224 mM); in data set [1] (oil or lipid, Labrasol ®), 231 mg/mL (≈ 538 mM); in data set [1] (oil or lipid, Labrasol ®/Capryol ® 90 60/40), 191 mg/mL (≈ 445 mM). For the same molecule, the solubility in data set [1] (organic solvent or mixture, Labrasol ®/PEG 400 60/40) is 182 mg/mL (≈ 424 mM); in data set [1] (organic solvent or mixture, Labrasol ®/Transcutol ® 60/40), 186 mg/mL (≈ 433 mM); in data set [1] (organic solvent or mixture, Tween ® 80), above 123 mg/mL.
